Article PMC4077311, “A Huge PVDF Adsorption Difference Between Resveratrol and ε-Viniferin Allows to Quantitatively Purify Them and to Assess Their Anti-Tyrosinase Property” (Chromatographia, 2014)

Biological target: Mushroom tyrosinase (Agaricus bisporus, UniProt C7FF04)
Assay: Tyrosinase L-DOPA oxidase inhibition activity
Description: Then, 40 μL L-DOPA (2.5 mM) and 80 μL phosphate buffer were added to the solution. Optical density (OD) of each assay, relative to the control, was measured at 492 nm by using a microplate reader (Tecan® Infinite M200 spectrophotometer).
Results expression: Inhibition of enzyme activity by each sample is expressed as % inhibition compared to the control and represented by the following equation: [1 − (ODsample × ODcontrol^−1)] × 100.

Chain of Mushroom tyrosinase (G1K3P4 entry or part of it): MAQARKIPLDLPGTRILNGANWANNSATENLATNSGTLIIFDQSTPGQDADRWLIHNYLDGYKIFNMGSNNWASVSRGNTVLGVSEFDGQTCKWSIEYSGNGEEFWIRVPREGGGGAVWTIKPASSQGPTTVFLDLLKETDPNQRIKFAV
Chain of Mushroom tyrosinase (C7FF04 1-392): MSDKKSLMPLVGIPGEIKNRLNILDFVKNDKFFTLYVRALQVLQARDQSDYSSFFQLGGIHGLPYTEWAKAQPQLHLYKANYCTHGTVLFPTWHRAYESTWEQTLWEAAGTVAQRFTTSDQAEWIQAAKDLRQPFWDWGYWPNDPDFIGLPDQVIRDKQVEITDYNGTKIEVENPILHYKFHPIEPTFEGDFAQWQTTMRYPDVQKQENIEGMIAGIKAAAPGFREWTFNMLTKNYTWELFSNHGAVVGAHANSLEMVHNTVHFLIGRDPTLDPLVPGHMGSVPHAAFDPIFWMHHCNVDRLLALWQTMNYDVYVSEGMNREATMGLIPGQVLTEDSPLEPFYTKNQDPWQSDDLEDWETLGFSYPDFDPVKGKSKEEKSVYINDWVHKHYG

| Structure (SMILES) | Tyrosinase inhibitory activity in words |
| --- | --- |
| Oc1ccc(/C=C/c2cc(O)cc(O)c2)cc1 [trans-Resveratrol 1, (E)-5-(4-hydroxystyryl)benzene-1,3-diol] | moderate inhibitory activity |
| Oc1ccc(C=Cc2cc(O)cc3c2[C@H](c2cc(O)cc(O)c2)[C@@H](c2ccc(O)cc2)O3)cc1 [trans-ε-Viniferin 2, 5-[(2S, 3S)-6-hydroxy-2-(4-hydroxyphenyl)-4-(4-hydroxystyryl)-2,3-dihydrobenzofuran-3-yl]benzene-1,3-diol] | the most active tyrosinase inhibitor ever tested by us |
